How the values were obtained:
[1] = system: primary fibroblasts from healthy donors; test: Cell death of primary fibroblasts by PI staining; format: cell-based, human; settings: 200 nM, 24 hours; n = 4
Protocol: Effectiveness of EC-7072 against different B-cell malignancies was assessed by; • (i) incubating primary fibroblasts from healthy donors (n = 4) and HK-2 cells from healthy human adult kidney (n = 3) following treatment with MTA (200 nM) or EC-7072 (200 nM) for 24 hours. Cell death was evaluated by PI staining to obtain the percentages corresponding to the [PI^+] subset (Figure 5A) and the mean percentage of [PI^+] cells (Figure 5B); • (ii) treating MEC-1, GRANTA-519, Z-138, JVM-2, CA-46, Ramos, Raji and U266 cell lines (n = 3) following treatment with EC-7072 (500 nM) followed by incubation for 24 hours. Cell viability was assessed by DiOC6(3)/PI staining and normalized to control (DMSO) condition to obtain mean percentage of viable [DiOC6(3)^+] cells (Figure 5C).

[2] = system: isolated CLL cells; test: Western blotting of isolated CLL cells; format: cell-based, human
Protocol: Isolated CLL cells were treated with 200 nM EC-7072 for 3, 8 and 12 hours and lysed with lysis buffer [50 mM Tris-HCl (pH 8), 150 mM NaCl, 1 mM EDTA, 1% NP-40, 20 mM NaF, EDTA-free protease inhibitor cocktail and phosSTOPTM (Roche)]. After heat denaturation, 25 µg protein were resolved on 10% and 15% SDS-PAGE gels and transferred to PVDF membranes (Sigma-Aldrich). Membranes were blocked with 5% BSA and incubated overnight at 4 °C with the corresponding primary antibodies (p-PLCγ2 (Y759), p-ERK1/2 (T202/Y204), p-STAT3 (Y705), p-LYN (Y507), STAT3 and GAPDH from Cell Signaling, and PLCγ2, ERK1/2, LYN, BCL-xL and Noxa from Santa Cruz Biotechnology). Blots were developed with secondary antibodies conjugated to IRDye680 or IRDye800 (Li-Cor Biosciences) and signal was detected on an Odyssey scanner.
Levels of phosphorylated and total proteins were quantified following Western blotting by densitometric analysis employing ImageJ software (https://imagej.nih.gov/ij/). To determine relative protein amounts, signal intensities were first normalized to GAPDH and the ratio between phosphorylated and total proteins was then calculated.
Western blot analysis of BCL-xL and Noxa in isolated CLL cells (n = 3) treated with 200 nM EC-7072 for the indicated times was performed (Figure 6E).
The inhibition of the tonic BCR pathway by EC-7072 was evaluated by: • (i) incubating PBMCs from patients with CLL, following treatment with 200 nM EC-7072, for 8 hours. Surface expression of CD79A (Figure 7A), CD79B (Figure 7B) and IgM (Figure 7C) in leukemia cells (n = 5 - 6) was assessed by flow cytometry and the MFI was normalized to the control (DMSO) condition; • (ii) incubating isolated leukemia cells from patients with CLL (n = 10), following treatment with EC-7072 (200 nM), for 8 hours. Phosphorylation levels of p-SYK (Figure 7D), p-BTK (Figure 7E) and p-PLCy2 (Figure 7F) proteins and p-ERK1/2 (Figure 7G), p-AKT (Figure 7H), p-p65 NPκB (Figure 7I) and p-STAT3 (Figure 7J) were evaluated by phosphoflow and the MFI was normalized to the control (DMSO) from each individual patient; • (iii) incubating PBMCs from patients with CLL (n = 8), following treatment with EC-7072 (200 nM), for 8 hours. Viability was determined by DiOC6(3)/PI staining and normalized to the control (DMSO) condition for each individual patient to obtain the mean percentage of viable [DiOC6(3)^+] cells (Figure 7K); • (iv) incubating isolated CLL cells (n = 4) stimulated with CD40L (100 ng/mL) or IL-6 (40 ng/mL) for 15 minutes and detecting respective phosphorylation levels of p65 NF-κB (Figure 7L) and STAT3 (Figure 7M) by phosphoflow to obtain the mean MFI normalized to the control (DMSO) condition for each individual patient; • (v) incubating isolated leukemia cells from 3 patients with CLL, following treatment with 200 nM EC-7072, for 3, 8 and 12 hours. Protein lysates were immunoblotted to detect the phosphorylated (p-LYN, p-PLCγ2, p-STAT3 and p-ERK1/2) and total protein (LYN, PLCγ2, STAT3 and ERK1/2) levels (Figure 7N); • (vi) incubating isolated leukemia cells from 3 patients with CLL, following treatment with 200 nM EC-7072, for 3, 8 and 12 hours and immunoblotting of protein lysates to detect p-LYN, LYN, p-PLCγ2, PLCγ2, p-STAT3, STAT3, p-ERK1/2 and ERK1/2. […]

[3] = 200 nM, 3, 8 and 12 hours, 3 patients

## CO[C@@H]([C@@H]1Cc2cc3cc(O[C@H]4C[C@@H](O[C@H]5C[C@@H](O)[C@H](O)[C@@H](C)O5)[C@H](O)[C@@H](C)O4)c(C)c(O)c3c(O)c2C(=O)[C@H]1O[C@H]1C[C@@H](O[C@H]2C[C@@H](O[C@H]3C[C@](C)(O)[C@H](O)[C@@H](C)O3)[C@@H](O)[C@@H](C)O2)[C@H](O)[C@@H](C)O1)[C@@H](O)C(C)=O [EC-7072, mithramycin SK]
[1]
  viability of primary human fibroblasts (PI^+ cells): did not markedly affect the viability
[2]; [3]
  levels of p-STAT3 (Western blotting): diminished
  p-LYN, p-PLCγ2 and p-ERK1/2 (Western blotting): time-dependent reduction
  total amount of LYN, PLCγ2 and STAT3: downregulate
[2]; 200 nM, time-dependent, n = 3
  levels of the antiapoptotic protein BCL-xL: decreased
  levels of the proapoptotic protein Noxa: increase
